Assay results as given in publication PMC7450492 (Molecular cancer therapeutics, 2020).
In brackets after ≈: the same amount, converted by molar mass. Entries after “also recorded” stand apart in the source; their conditions may differ.

Columns and labels:
LLC tumors [1] = test: LLC tumors in Syk^MC-KO mice; type: in vivo, mouse
LLC tumors [2] = test: LLC syngeneic tumor in WT mice; type: in vivo; details: for infiltration of CD8+ T cells in LLC tumors: treated LLC tumors
LLC cells = test: viability of LLC cells; type: cell-based, mouse
T cells = test: T cell proliferation ex vivo; type: cell-based, mouse
B16-OVA tumor = B16-OVA tumor in C57BL/6 mice; type: in vivo, mouse
LLC tumor = LLC tumor with macrophage depletion by anti-CSF1R; type: in vivo, mouse; details: macrophage depleted mice
Syk = Syk (Homo sapiens, UniProt P43405); test: cell free enzymatic inhibition of Syk; type: biochemical; details: read-out: Syk inhibitory activity IC50; cell free system
[3] = tested on: PI3K isoforms p110α, p110β, p110γ and p110δ; test: cell free enzymatic inhibition of PI3K isoforms; type: biochemical; details: in vitro
p-AKT = p-AKT blockade; type: cell-based; details: 10 µM conc.
[4] = PK in mice, i.v. and oral; type: in vivo, mouse; details: prototype formulation, preliminary
solubility in water = type: physicochemical
metabolic stability = type: in vitro ADME
CT26 tumor = CT26 tumor in NSG or Balb/c mice; type: in vivo, mouse
[5] = tested on: immunosuppressive gene expression in MΦ; test: immunosuppressive MΦ polarization, gene expression; type: cell-based; details: very low dose, compared to IPI-549 or R488 alone

| Compound | LLC tumor growth in Syk^MC-KO mice (LLC tumors [1]) | tumor growth and metastasis (LLC tumors [2]; LLC, WT mice, 40 mg/kg R788 orally, vs vehicle) | infiltration of CD8+ T cells in LLC tumors (LLC tumors [2]) | viability of LLC cells (LLC cells) | T cell proliferation (T cells) | OVA specific CD8+ T cells in tumor draining lymph nodes (B16-OVA tumor; B16-OVA, H-2K^b SIINFEKL tetramers) | B16-OVA tumor growth (B16-OVA tumor; C57BL/6 mice, R788 40 mg/kg, anti-PDL1 200µg, 40 mg/kg) | LLC tumor growth, combination with anti-CSF1R (CD115) antibody (LLC tumor) | IC50 (Syk) | PI3K inhibitory potency [3] | p-AKT blockade (p-AKT) | half-life ([4]; 5mg/kg IV and 15 mg/kg PO) | bioavailability ([4]; oral 15 mg/kg PO vs 5mg/kg IV) | solubility in water (solubility in water) | CLint (metabolic stability) | toxicity in tumor-bearing mice (LLC tumors [2]; 10 mg/kg dose) | LLC tumor growth and survival (LLC tumors [2]; 10 mg/kg oral, WT mice, compared to IPI549 and R788 at similar doses) | CT26 tumor growth in Balb/c mice (CT26 tumor; Balb/c mice) | CT26 tumor growth in NSG mice (CT26 tumor; NSG mice) | immunosuppressive gene expression [5] |
| --- | --- | --- | --- | --- | --- | --- | --- | --- | --- | --- | --- | --- | --- | --- | --- | --- | --- | --- | --- | --- |
| C[C@H](NC(=O)c1c(N)nn2cccnc12)c1cc2cccc(C#Cc3cnn(C)c3)c2c(=O)n1-c1ccccc1 [IPI549] | significantly decreased | – | – | – | – | – | – | – | – | – | – | – | – | – | – | – | – | – | – | – |
| COc1cc(Nc2ncc(F)c(Nc3ccc4c(n3)N(COP(=O)(O)O)C(=O)C(C)(C)O4)n2)cc(OC)c1OC [R788, Fostamatinib] | didn’t show additive reduction | significantly suppressed | increased infiltration | no effect | no effect | increased | significantly blocked tumor growth; also recorded: substantially inhibited | no additive effects | – | – | – | – | – | – | – | – | – | – | – | – |
| Cc1nn(-c2ccnc(Nc3ccc(-c4csc5c(=O)cc(N6CCOCC6)oc45)cc3)n2)cc1CN1CCC1 [SRX3207] | significantly decreased | – | increased infiltration | – | didn’t affect | – | – | no additive effects | 30 nM | acceptable PI3K inhibitory properties | able to block | about 5 hours | around 2% | 43 µM (≈ 23.9 µg/mL) | 74 µL/min/mg protein | without toxicity | blocked tumor growth and increased survival effectively | blocked tumor growth | didn’t block | potently blocks |
